Holding throughout (assay type): biochemical
One assay addresses PI3K-alpha (Homo sapiens, UniProt P42336). Briefly: PI3K-alpha fluorescence polarization assay. As to conditions: read-out: PI3Kα Avg. IC50.
In another assay the target is PI3K-gamma (Homo sapiens, UniProt P48736). Briefly: PI3K-gamma fluorescence polarization assay. As to conditions: PI3Kγ Avg. IC50. In a few lines: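 Reactions used 5 ng enzyme with 2.5 μM diC8-PI(4,5)P2 and 25 μM ATP in 5 mM HEPES pH 7, 2.5 mM MgCl2, run 1 h at 25° C. After an EDTA quench (10 mM), 100 nM GST-GRP1 PH domain and 5 nM BODIPY-TMR-IP4 were added and fluorescence polarization was read.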
PI3K-gamma, sequence (P48736 whole entry, species assumed, the tested form may be a part): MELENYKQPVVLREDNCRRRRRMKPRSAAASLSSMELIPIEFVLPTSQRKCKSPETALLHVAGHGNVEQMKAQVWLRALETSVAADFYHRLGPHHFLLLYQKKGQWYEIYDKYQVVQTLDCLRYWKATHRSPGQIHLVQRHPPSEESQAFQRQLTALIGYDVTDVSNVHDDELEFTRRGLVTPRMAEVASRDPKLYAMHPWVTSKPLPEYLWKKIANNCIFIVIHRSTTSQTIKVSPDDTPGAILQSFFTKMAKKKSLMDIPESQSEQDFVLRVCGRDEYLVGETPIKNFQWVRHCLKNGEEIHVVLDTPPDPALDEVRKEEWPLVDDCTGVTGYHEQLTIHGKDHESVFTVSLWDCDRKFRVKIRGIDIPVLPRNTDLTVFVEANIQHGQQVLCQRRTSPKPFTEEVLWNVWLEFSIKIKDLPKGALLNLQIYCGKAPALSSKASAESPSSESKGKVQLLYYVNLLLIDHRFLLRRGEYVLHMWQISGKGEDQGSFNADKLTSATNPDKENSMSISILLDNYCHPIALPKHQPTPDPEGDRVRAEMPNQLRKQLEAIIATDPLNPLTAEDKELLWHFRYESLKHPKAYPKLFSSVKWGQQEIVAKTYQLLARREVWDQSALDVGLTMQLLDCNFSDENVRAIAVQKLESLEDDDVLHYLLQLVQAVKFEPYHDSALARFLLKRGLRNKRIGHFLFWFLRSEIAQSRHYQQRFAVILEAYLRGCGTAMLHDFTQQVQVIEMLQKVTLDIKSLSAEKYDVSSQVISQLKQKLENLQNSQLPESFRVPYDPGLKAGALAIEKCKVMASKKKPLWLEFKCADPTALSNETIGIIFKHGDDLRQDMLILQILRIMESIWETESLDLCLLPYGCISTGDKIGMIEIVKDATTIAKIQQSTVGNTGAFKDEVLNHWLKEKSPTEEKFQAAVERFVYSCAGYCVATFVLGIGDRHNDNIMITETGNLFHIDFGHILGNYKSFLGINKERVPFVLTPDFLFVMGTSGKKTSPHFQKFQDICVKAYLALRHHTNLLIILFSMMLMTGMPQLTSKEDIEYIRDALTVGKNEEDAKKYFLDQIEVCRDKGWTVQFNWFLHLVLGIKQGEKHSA
Background: In fluorescence polarisation assays a small probe gives low polarisation when free and higher when bound to something large.

The next assay concerns the target T1, human TOR (Homo sapiens, UniProt P42345).
T1 construct: FLAG
Briefly: mTOR enzyme assay (DELFIA, His6-S6K substrate). As to conditions: read-out: mTOR Kinase Avg. IC50.

As usually defined, the IC50 is the concentration at which inhibition is half-maximal.

PI3K-alpha, sequence (P42336 whole entry, species assumed, the tested form may be a part): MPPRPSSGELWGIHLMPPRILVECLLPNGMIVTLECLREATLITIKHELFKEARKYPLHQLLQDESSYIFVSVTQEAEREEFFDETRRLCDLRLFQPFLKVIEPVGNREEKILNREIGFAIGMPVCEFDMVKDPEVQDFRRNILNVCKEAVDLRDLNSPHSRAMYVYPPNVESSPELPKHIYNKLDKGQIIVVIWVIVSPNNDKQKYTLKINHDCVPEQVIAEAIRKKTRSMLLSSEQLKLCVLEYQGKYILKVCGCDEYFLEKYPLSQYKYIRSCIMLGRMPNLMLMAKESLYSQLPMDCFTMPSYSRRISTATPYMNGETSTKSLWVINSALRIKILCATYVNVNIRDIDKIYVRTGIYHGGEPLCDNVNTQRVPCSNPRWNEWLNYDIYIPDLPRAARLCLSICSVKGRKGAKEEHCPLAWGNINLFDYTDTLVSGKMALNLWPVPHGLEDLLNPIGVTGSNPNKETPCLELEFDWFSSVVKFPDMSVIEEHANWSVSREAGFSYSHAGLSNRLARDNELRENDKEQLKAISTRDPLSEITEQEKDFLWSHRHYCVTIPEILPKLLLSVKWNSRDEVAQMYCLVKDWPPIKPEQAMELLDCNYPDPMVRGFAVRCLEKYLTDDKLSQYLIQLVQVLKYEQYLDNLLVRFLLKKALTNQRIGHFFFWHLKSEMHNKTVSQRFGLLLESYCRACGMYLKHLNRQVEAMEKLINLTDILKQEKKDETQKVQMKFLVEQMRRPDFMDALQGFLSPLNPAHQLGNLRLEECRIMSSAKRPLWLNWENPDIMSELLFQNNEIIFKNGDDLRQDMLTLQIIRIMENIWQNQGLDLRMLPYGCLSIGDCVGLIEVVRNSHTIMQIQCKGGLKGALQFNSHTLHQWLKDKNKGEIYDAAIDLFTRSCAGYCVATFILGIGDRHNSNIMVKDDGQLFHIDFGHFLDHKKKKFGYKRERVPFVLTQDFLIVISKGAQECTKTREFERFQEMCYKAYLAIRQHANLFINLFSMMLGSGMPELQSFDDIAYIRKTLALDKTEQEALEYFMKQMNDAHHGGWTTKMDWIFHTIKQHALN
PI3K-alpha, sequence (P27986 whole entry partner, species assumed, the tested form may be a part): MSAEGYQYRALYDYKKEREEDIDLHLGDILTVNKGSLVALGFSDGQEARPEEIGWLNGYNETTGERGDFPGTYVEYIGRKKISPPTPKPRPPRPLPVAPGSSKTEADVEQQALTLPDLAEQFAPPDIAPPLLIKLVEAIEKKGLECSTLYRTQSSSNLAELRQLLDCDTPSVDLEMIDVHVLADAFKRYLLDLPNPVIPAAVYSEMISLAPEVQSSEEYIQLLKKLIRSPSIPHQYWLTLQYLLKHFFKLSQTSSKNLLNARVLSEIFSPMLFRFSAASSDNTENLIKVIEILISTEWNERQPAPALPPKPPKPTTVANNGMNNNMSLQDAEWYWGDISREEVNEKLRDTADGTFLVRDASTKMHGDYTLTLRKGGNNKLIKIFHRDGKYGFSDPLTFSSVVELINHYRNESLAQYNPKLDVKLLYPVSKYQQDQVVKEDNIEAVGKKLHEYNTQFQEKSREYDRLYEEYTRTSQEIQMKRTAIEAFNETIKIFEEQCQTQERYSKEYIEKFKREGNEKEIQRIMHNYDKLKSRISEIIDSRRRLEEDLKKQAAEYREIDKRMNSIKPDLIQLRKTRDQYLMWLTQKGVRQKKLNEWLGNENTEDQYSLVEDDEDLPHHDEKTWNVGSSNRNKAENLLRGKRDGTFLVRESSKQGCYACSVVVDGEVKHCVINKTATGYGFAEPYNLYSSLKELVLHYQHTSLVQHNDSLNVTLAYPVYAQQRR

On to `COc1ccc2c(c1)c(/C=C1\Oc3cc(NC(C)=O)ccc3C1=O)cn2CCCN(C)C` [Example 407, N-(2Z)-[2-({1-[3-(Dimethylamino)propyl]-5-methoxy-1H-indol-3-yl}methylene)-3-oxo-2,3-dihydro-1-benzofuran-6-yl]acetamide], for which the concentration for half-maximal inhibition (IC50) at PI3K-alpha is > 10 µM; at PI3K-gamma it was > 10 µM; on human TOR it was > 20 µM.

For the compound `COc1ccc2c(c1)c(/C=C1\Oc3cc(O)cc(O)c3C1=O)c(C1CCCC1)n2CCN1CCN(C)CC1` [Example 410, (2Z)-2-({2-cyclopentyl-5-methoxy-1-[2-(4-methylpiperazin-1-yl)ethyl]-1H-indol-3-yl}methylene)-4,6-dihydroxy-1-benzofuran-3(2H)-one], the IC50 at PI3K-alpha amounted to 0.003 µM; at PI3K-gamma, 0.116 µM; at human TOR, 0.00064 µM.

Turning to `COc1ccc2c(c1)c(/C=C1\Oc3cc(O)ccc3C1=O)c(C1CCCC1)n2CCN1CCN(C)CC1` [Example 411, (2Z)-2-({2-Cyclopentyl-5-methoxy-1-[2-(4-methylpiperazin-1-yl)ethyl]-1H-indol-3-yl}methylene)-6-hydroxy-1-benzofuran-3(2H)-one], the half-maximal inhibitory concentration (IC50) at PI3K-alpha came to 0.0115 µM; at PI3K-gamma, 0.984 µM; on human TOR it was 0.047 µM.

With `COc1ccc2c(c1)c(/C=C1\Oc3cc(O)ccc3C1=O)c(C(=O)N1CCOCC1)n2CCN1CCN(C)CC1` [Example 412, (2Z)-6-Hydroxy-2-({5-methoxy-1-[2-(4-methylpiperazin-1-yl)ethyl]-2-(morpholin-4-ylcarbonyl)-1H-indol-3-yl}methylene)-1-benzofuran-3(2H)-one], the IC50 on PI3K-alpha came out at 0.0105 µM; on PI3K-gamma, 0.888 µM; on human TOR it was 2.8 µM.

As to `COc1ccc2c(c1)c(/C=C1\Oc3cc(Br)ccc3C1=O)cn2CCCN(C)C` [Example 413, (2Z)-6-bromo-2-({1-[3-(dimethylamino)propyl]-5-methoxy-1H-indol-3-yl}methylene)-1-benzofuran-3(2H)-one], the IC50 on PI3K-alpha was 7.82 µM; on PI3K-gamma, 5.61 µM; at human TOR, > 20 µM.

With `COc1ccc2[nH]cc(/C=C3\Oc4cc(O)ccc4C3=O)c2c1` [Example 414, (2Z)-6-Hydroxy-2-[(5-methoxy-1H-indol-3-yl)methylene]-1-benzofuran-3(2H)-one], the results for the IC50 at PI3K-alpha, against PI3K-gamma and at human TOR were 0.055 µM, 0.281 µM and 1.85 µM, respectively.

With `COc1ccc2c(c1)c(/C=C1\Oc3cc(NC(=O)OC(C)(C)C)ccc3C1=O)cn2CCCN(C)C` [Example 417, tert-butyl (2Z)-[2-({1-[3-(dimethylamino)propyl]-5-methoxy-1H-indol-3-yl}methylene)-3-oxo-2,3-dihydro-1-benzofuran-6-yl]carbamate], the values for the IC50 on PI3K-alpha, against PI3K-gamma and on human TOR were 4.74 µM, 2.1 µM and > 20 µM, respectively.

`COc1ccc2c(c1)c(/C=C1\Oc3cc(N)ccc3C1=O)cn2CCCN(C)C` [Example 418, (2Z)-6-amino-2-({1-[3-(dimethylamino)propyl]-5-methoxy-1H-indol-3-yl}methylene)-1-benzofuran-3(2H)-one]: the IC50 on PI3K-alpha came out at 1.39 µM; against PI3K-gamma, 9.5 µM; at human TOR, 10.3 µM.

On to `Cn1cc(/C=C2\Oc3cc(O)cc(O)c3C2=O)c2c(-c3ccccc3N)cccc21` [Example 419, (2Z)-2-{[4-(2-Aminophenyl)-1-methyl-1H-indol-3-yl]methylene}-4,6-dihydroxy-1-benzofuran-3(2H)-one], for which the figures for the IC50 at PI3K-alpha, on PI3K-gamma and on human TOR were 1.07 µM, > 10 µM and 0.024 µM, respectively.

Take `Cn1cc(/C=C2\Oc3cc(O)cc(O)c3C2=O)c2c(-c3ccc([N+](=O)[O-])cc3)cccc21` [Example 420, (2Z)-4,6-Dihydroxy-2-{[1-methyl-4-(4-nitrophenyl)-1H-indol-3-yl]methylene}-1-benzofuran-3(2H)-one]: the IC50 on PI3K-alpha was 0.708 µM; on PI3K-gamma, > 10 µM; on human TOR, 0.0315 µM.

For the compound `COc1ccc2c(c1)c(/C=C1\Oc3cc(NS(C)(=O)=O)ccc3C1=O)cn2CCCN(C)C` [Example 422, N-(2Z)-[2-({1-[3-(Dimethylamino)propyl]-5-methoxy-1H-indol-3-yl}methylene)-3-oxo-2,3-dihydro-1-benzofuran-6-yl]methanesulfonamide], the IC50 was 9 µM at PI3K-alpha, 7.64 µM against PI3K-gamma and > 20 µM at human TOR.

On to `COc1ccc(Br)c2c1C(=O)/C(=C/c1cn(C)c3cccc(-c4ccccc4)c13)O2` [Example 423, (2Z)-7-Bromo-4-methoxy-2-[(1-methyl-4-phenyl-1H-indol-3-yl)methylene]benzofuran-3(2H)-one], for which the IC50 was > 10 µM on PI3K-alpha, > 10 µM at PI3K-gamma and > 20 µM on human TOR.

As for `COc1ccc2c(c1)c(/C=C1\Oc3cc(CO)ccc3C1=O)cn2CCCN(C)C` [Example 424, (2Z)-2-({1-[3-(dimethylamino)propyl]-5-methoxy-1H-indol-3-yl}methylene)-6-(hydroxymethyl)-1-benzofuran-3(2H)-one], the IC50 is 4.02 µM at PI3K-alpha, > 10 µM against PI3K-gamma and > 20 µM at human TOR.

`CN1CCN(CCn2cc(/C=C3\Oc4cc(O)cc(O)c4C3=O)c3c(-c4ccc(C(N)=O)cc4)cccc32)CC1` [Example 425, 4-{3-[(Z)-(4,6-Dihydroxy-3-oxo-1-benzofuran-2(3H)-ylidene)methyl]-1-[2-(4-methylpiperazin-1-yl)ethyl]-1H-indol-4-yl}benzamide]: the IC50 was 5.04 µM on PI3K-alpha, 8.65 µM against PI3K-gamma and > 20 µM on human TOR.

For `COc1ccc2c(c1)c(/C=C1\Oc3cc(-c4ccc(NC(C)=O)cc4)ccc3C1=O)cn2CCCN(C)C` [Example 426, N-{4-[(2Z)-2-({1-[3-(Dimethylamino)propyl]-5-methoxy-1H-indol-3-yl}methylene)-3-oxo-2,3-dihydro-1-benzofuran-6-yl]phenyl}acetamide], the IC50 on PI3K-alpha is 6.25 µM; at PI3K-gamma, > 10 µM; at human TOR, > 20 µM.

For `COc1ccc2c(c1)c(/C=C1\Oc3cc(-c4cnc(N)nc4)ccc3C1=O)cn2CCCN(C)C` [Example 427, (2Z)-6-(2-Aminopyrimidin-5-yl)-2-({1-[3-(dimethylamino)propyl]-5-methoxy-1H-indol-3-yl}methylene)-1-benzofuran-3(2H)-one], the IC50 was 9.53 µM at PI3K-alpha, 3.03 µM against PI3K-gamma and > 20 µM at human TOR.

For the compound `Cn1cc(/C=C2\Oc3c(Br)ccc(O)c3C2=O)c2c(-c3ccccc3)cccc21` [Example 428, (2Z)-7-Bromo-4-hydroxy-2-[(1-methyl-4-phenyl-1H-indol-3-yl)methylene]benzofuran-3(2H)-one], the concentration for half-maximal inhibition (IC50) is > 5 µM at PI3K-alpha, > 5 µM at PI3K-gamma and > 20 µM at human TOR.

On to `COc1ccc2c(c1)c(/C=C1\Oc3cc(O)cc(Br)c3C1=O)c(C)n2CCN1CCN(C)CC1` [Example 429, (2Z)-4-Bromo-6-hydroxy-2-({5-methoxy-2-methyl-1-[2-(4-methylpiperazin-1-yl)ethyl]-1H-indol-3-yl}methylene)-1-benzofuran-3(2H)-one], for which the values for the IC50 at PI3K-alpha, on PI3K-gamma and on human TOR were 0.0675 µM, 3.13 µM and 0.5 µM, respectively.

With `COc1ccc2c(c1)c(/C=C1\Oc3cc(O)cc(O)c3C1=O)c(C(=O)N1CCCC1)n2CCN1CCN(C)CC1` [Example 430, (2Z)-4,6-Dihydroxy-2-({5-methoxy-1-[2-(4-methylpiperazin-1-yl)ethyl]-2-(pyrrolidin-1-ylcarbonyl)-1H-indol-3-yl}methylene)-1-benzofuran-3(2H)-one], the results for the IC50 on PI3K-alpha, on PI3K-gamma and at human TOR were 0.0075 µM, 0.197 µM and 0.115 µM, respectively.

As for `COc1cc(O)cc2c1C(=O)/C(=C/c1c(-c3ccccc3)n(C)c3ccccc13)O2` [Example 432, (2Z)-6-Hydroxy-4-methoxy-2-[(1-methyl-2-phenyl-1H-indol-3-yl)methylene]benzofuran-3(2H)-one], the 50% inhibitory concentration (IC50) was > 10 µM on PI3K-alpha, 8.14 µM against PI3K-gamma and 2.03 µM on human TOR.

As for `COc1ccc2c(c1)SC(=Cc1c[nH]c3ccc(OC)cc13)C2=O` [Example 433, 6-Methoxy-2-[(5-methoxy-1H-indol-3-yl)methylene]-1-benzothiophen-3(2H)-one], the values for the IC50 at PI3K-alpha, on PI3K-gamma and on human TOR were > 10 µM, > 10 µM and > 20 µM, respectively.

Regarding `COc1ccc2[nH]cc(C=C3Oc4cc(SC)ccc4C3=O)c2c1` [Example 434, 2-[(5-Methoxy-1H-indol-3-yl)methylene]-6-(methylthio)-1-benzofuran-3(2H)-one], the figures for the IC50 at PI3K-alpha, on PI3K-gamma and on human TOR were > 10 µM, > 10 µM and > 20 µM, respectively.

For the compound `COc1ccc2[nH]cc(C=C3Oc4cc(S(C)(=O)=O)ccc4C3=O)c2c1` [Example 436, 2-[(5-Methoxy-1H-indol-3-yl)methylene]-6-(methylsulfonyl)-1-benzofuran-3(2H)-one], the IC50 is > 10 µM on PI3K-alpha, > 10 µM on PI3K-gamma and > 20 µM at human TOR.

Regarding `Cn1c(-c2ccccc2)c(/C=C2\Oc3cc(O)cc(O)c3C2=O)c2c(C#N)cccc21` [Example 437, 3-[(Z)-(4,6-dihydroxy-3-oxo-1-benzofuran-2(3H)-ylidene)methyl]-1-methyl-2-phenyl-1H-indole-4-carbonitrile], the IC50 was 1.6 µM at PI3K-alpha, > 10 µM against PI3K-gamma and < 0.023 µM on human TOR.

Turning to `CN1CCN(CCn2cc(/C=C3\Oc4cc(O)cc(O)c4C3=O)c3c(-c4ccc(N(C)C)cc4)cccc32)CC1` [Example 438, (2Z)-2-({4-[4-(Dimethylamino)phenyl]-1-[2-(4-methylpiperazin-1-yl)ethyl]-1H-indol-3-yl}methylene)-4,6-dihydroxy-1-benzofuran-3(2H)-one], the IC50 at PI3K-alpha is 2.98 µM; on PI3K-gamma, 9 µM; on human TOR, > 20 µM.

Values taken from patent publication US20090311217A1, “3-SUBSTITUTED-1H-INDOLE COMPOUNDS, THEIR USE AS MTOR KINASE AND PI3 KINASE INHIBITORS, AND THEIR SYNTHESES” (priority 2008, published 2009).
